Data on one compound can be found in US12702148B2, “Acetylcholinesterase inhibitor” (Taiko Pharmaceutical Co., Ltd., priority 2019, dated 2026).

Experiment [1] addresses T1, Acetylcholinesterase from Electrophorus electricus (electric eel) Type VI-S (Electrophorus electricus, UniProt O42275).
T1 construct: purchased Sigma-Aldrich C3389-500UN
In words: biochemical. The protocol:
2. Reagents 2.1 AchE Enzyme • Name: Acetylcholinesterase from Electrophorus electricus (electric eel) Type VI-S • Serial number: C3389-500UN • Obtained from: Sigma-Aldrich • Storage condition: Frozen (−20° C.) 2.2 AchE Activity Measurement Kit • Name: Acetylcholinesterase Activity Assay Kit • Serial number: MAK119 • Obtained from: Sigma-Aldrich • Storage condition: Room temperature 2.3 Solvent • Name: UltraPure 1M Tris-HCL pH 7.5 • Serial number: 15567-027 • Obtained from: Invitrogen • Storage condition: Refrigerated (4° C.) 2.4 Water
AchE enzyme (lyophilized powder) 2 mg (500 units) was dissolved in 2 mL of Tris-HCL Buffer pH 7.5 prepared to a concentration of 20 mM. This was then further diluted 30-folds with ultrapure water to prepare to a concentration of 33.3 μg/mL.
Two mg of the reagent included in the AchE activity measurement kit was weighed, dissolved in 200 mL of the assay buffer, and the working solution was obtained.
Measurement was carried out according to the following order. • 1) AchE enzyme solution (33.3 μg/mL) is mixed with test substance 1 solution (5 mg/mL) and ultrapure water according to the following Table 1.
(§1) • 2) The mixture is allowed to react in a thermobath at 37° C. for 10 minutes. • 3) 200 μL each of ultrapure water is added to 4 wells (n=4) of a 96-well microplate (blank wells.) • 4) 200 μL each of the calibrator included in the AchE activity measurement kit is added to 4 wells (n=4) different from those in Procedure 3) (calibrator wells.) • 5) 190 μL each of the working solution is added to yet another 24 wells (6 samples×4) (sample wells.) • 6) To the wells with the working solution added, 10μ each of post-reaction solutions No. 1-6 obtained in Procedure 2) is added to 4 wells (n=4) each. • 7) The plates are lightly tapped to allow mixing, reacted for 2 minutes at room temperature, and then absorbance at 412 nm is read with a microplate reader. • 8) This is allowed to react for another 8 minutes at room temperature (a total of 10 minutes), and then the absorbance at 412 nm is measured.
Measurement was carried out according to the following order. • 1) AchE enzyme solution (33.3 μg/mL) is mixed with test substance 2 solution (800 μg/mL) and ultrapure water according to the following Table 2.
as §1, with “measured. 6. Data Processing” for “measured.”
Employing the absorbance values obtained, the AchE activity (units/mL) was calculated by the formula below, and the average value and standard deviation of the AchE activity (units/mL) for each test substance at each concentration was calculated.
[formula] • (A412) final: Absorbance value at 412 nm after 10 minutes of reaction • (A412) initial Absorbance value at 412 nm after 2 minutes of reaction • n: Dilution coefficient (n=120) 0.2: Coefficient by Calibrator
Moreover, employing the AchE activity for the test substance at each concentration, One phase exponential decay curve was obtained by GraphPad Prism, and the IC50 value (mg/mL) was calculated.

The target of experiment [2] is T1, Acetylcholinesterase from Electrophorus electricus (electric eel) Type VI-S. The class given is biochemical. To be noted: n=3, average value.

Like-named read-outs stand apart in the source and are kept apart here.

T1 sequence (O42275 24-633): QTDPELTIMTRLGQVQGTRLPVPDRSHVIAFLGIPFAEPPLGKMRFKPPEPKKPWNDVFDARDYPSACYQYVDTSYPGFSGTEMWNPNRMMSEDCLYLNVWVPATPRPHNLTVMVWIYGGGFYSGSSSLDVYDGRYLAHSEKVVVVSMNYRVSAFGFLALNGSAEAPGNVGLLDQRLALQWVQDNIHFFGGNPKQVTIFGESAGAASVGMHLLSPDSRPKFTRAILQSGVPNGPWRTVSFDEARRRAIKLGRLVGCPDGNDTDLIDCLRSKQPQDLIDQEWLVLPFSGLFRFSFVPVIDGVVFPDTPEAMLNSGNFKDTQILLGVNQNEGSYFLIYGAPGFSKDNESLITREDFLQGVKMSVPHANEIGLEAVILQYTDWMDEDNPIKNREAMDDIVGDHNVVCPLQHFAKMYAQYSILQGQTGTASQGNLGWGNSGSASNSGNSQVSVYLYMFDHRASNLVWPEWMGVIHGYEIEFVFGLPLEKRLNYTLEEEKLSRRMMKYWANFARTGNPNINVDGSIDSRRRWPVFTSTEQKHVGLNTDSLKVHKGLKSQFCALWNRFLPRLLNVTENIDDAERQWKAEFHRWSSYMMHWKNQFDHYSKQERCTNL

What is called IC50 is the midpoint of a concentration-inhibition curve. As for `COc1ccccc1O` [GUA, Guaiacol], the half-inhibitory concentration (IC50) in experiment [1] (nonlinear regression curve of AchE activity at each concentration (GraphPad Prism), read-out: IC50 value (converted)) is 137 mM; in experiment [1] (regression curve by GraphPad Prism, Example 2, read-out: IC50) it was 17 mM. In addition, the inhibition at 200 µM in experiment [1] (read-out: Inhibitory rate) was found to be 3%. Further, the inhibition at 700 µM in experiment [1] (read-out: Inhibitory rate) was 3.9%. In experiment [1] (read-out: Inhibitory rate), the inhibition at 2000 µM was 2.2%. Moreover, the inhibition at 7000 µM in experiment [1] (read-out: Inhibitory rate) amounted to 19.9%. For the same compound, the inhibition at 20000 µM in experiment [1] (read-out: Inhibitory rate) is 58.8%. For the same compound, the AchE activity is reported as 24.89 units/mL in experiment [2] (GUA concentration 0.2 mM); 24.64 units/mL in experiment [2] (GUA concentration 0.7 mM); 25.09 units/mL in experiment [2] (GUA concentration 2 mM); 20.54 units/mL in experiment [2] (GUA concentration 7 mM); 10.56 units/mL in experiment [2] (GUA concentration 20 mM).
